Test results taken from patent US5698547A, “Cephalosporin antibiotics” (Microcide Pharmaceuticals, Inc., priority 1995, dated 1997).
≈ marks a conversion by molar mass, not a printed value. Structures can show the parent of a compound that is named as a salt.

What was measured:
S. aureus ATCC 29213 = experiment: MIC by agar dilution, S. aureus ATCC 29213; assay type: cell-based; conditions: Staphylococcus aureus, ATCC29213; agar dilution; S. aureus ATCC 29213; read-out: MIC
Method: (§1) The compounds of the invention were evaluated against several β-lactamresistant bacteria strains by determining the minimum inhibitory concentration (MIC, μg/ml) of each compound with respect to each strain. The MIC, the lowest concentration of antibiotic which inhibits growth of the test organism, was determined by the agar dilution method.
(§2) To determine the MIC for bacterial isolates, the test compound was incorporated in a series of two-fold dilutions into liquified Mueller-Hinton agar. Upon solidification, a number of different bacterial strains were spot inoculated with a replicating device onto the agar surface. […] The procedures used in these studies have been standardized by the National Committee for Clinical Laboratory Standards (NCCLS), as per the NCCLS publication entitled METHODS FOR DILUTION ANTIMICROBIAL SUSCEPTIBILITY TESTS (1991), which is incorporated herein by reference.
(§3) Aliquots of antimicrobial agents were prepared in phosphate buffered saline (PBS) at pH 7.2. Tween 20 or DMSO was used as a solubilizing vehicle as needed. Standard methods of vortexing, sonicating and gentle heat were used to facilitate solubilizing the test agent. Typically, the concentration of the stock solution was 10× that of the highest drug concentration tested. A 1.28 mg/mL stock solution was used with a subsequent highest working concentration of 128 μg/mL. Serial two-fold dilutions were done through ≤0.25 μg/mL. Each drug level was tested in duplicate. Two-fold drug dilutions were done in sterile 50 mL tubes with a final drug volume of 5 mL. Upon the addition of 45 mL of molten agar, a 10-fold dilution resulted. Two, 25 mL. plates were then poured into 15×150 mm square Petri plates with grids and allowed to harden.
(§4) A control plate with a reference drug, either cefotaxime, vancomycin or imipenem, was used as the positive growth control. Stock concentrations of reference antibiotics were prepared and frozen at -80° C. Upon preparation, the control plates were sealed and stored in the refrigerator for up to 1 week prior to use; however, imipenem control plates had to be prepared just prior to use. All test plates were used within 24 hours of preparation.
(§5) Satisfactory results were obtained where the inoculum contained about 10^4 colony forming units (cfu) ±0.5 logs. Starting with pure cultures of the test isolates on agar plates, a few isolated colonies were transferred to a tube of nutrient broth and allowed to grow 4-6 hours at 35°-36° C. to reach log-phase growth. Dropwise addition of the broth culture to PBS was done to match a 0.5 McFarland turbidity standard equal to 10^8 cfu/mL. This was further diluted ten-fold in PBS to reach a working inoculum concentration of 10^7 cfu/mL. When 1 μL of the working inoculum was applied to the agar surface a concentration of about 10^4 cfu per spot was obtained.
(§6) Disposable sterile 1 μL loops were used to inoculate test plates, with each isolate in a designated grid on the agar plate. An alternate method of inoculation involved the use of a replica plater, a device with 48 steel pins allowing the simultaneous inoculation of multiple isolates. After the spots had dried, the plates were incubated at 35°-36° C. for 16-20 hours. Endpoints were assessed as the minimum inhibitory concentration (MIC) of antimicrobial agent.

[1] = test system: S. aureus Col (Meth^R) (lac^-); experiment: MIC by agar dilution, S. aureus Col (Meth^R) (lac^-); assay type: cell-based; conditions: Staphylococcus aureus; agar dilution; S. aureus Col (Meth^R) (lac^-); read-out: MIC
Procedure, shortened: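 Log-phase isolates were spot-inoculated at about 10^4 cfu onto Mueller-Hinton agar carrying duplicate two-fold compound levels, 128 μg/mL to ≤0.25 μg/mL, following NCCLS (1991). Plates were read after 16-20 h at 35°-36° C. The lowest growth-inhibiting concentration gave the MIC (μg/ml).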

[2] = test system: S. aureus 76 (Meth^R) (lac^+); experiment: MIC by agar dilution, S. aureus 76 (Meth^R) (lac^+); assay type: cell-based; conditions: Staphylococcus aureus, read-out: MIC
Method: as §1, §2, §3, §4, §5, §6

[3] = test system: S. aureus Col8A (Meth^S) (lac^-); experiment: MIC by agar dilution, S. aureus Col8A (Meth^S) (lac^-); assay type: cell-based; conditions: Staphylococcus aureus; agar dilution; S. aureus Col8A (Meth^S) (lac^-); read-out: MIC
Method: as §1, §2, §3, §4, §5, §6
The novel agents of this invention are notable for their enhanced activity against S. aureus Col and Enterococci (E. faecium and E. faecalis). The S. aureus Col strain is a high-level PBP2a producer, whereas S. aureus Col 8A, its isogenic partner, lacks PBP2a. […] Thus, the compounds of the present invention are effective against PBP2a-producing bacteria.

S. haemolyticus (Meth^R) = experiment: MIC by agar dilution, S. haemolyticus (Meth^R); assay type: cell-based; conditions: Staphylococcus haemolyticus, read-out: MIC
Method: as §1, §2, §3, §4, §5, §6

E. faecium ATCC 35667 = experiment: MIC by agar dilution, E. faecium ATCC 35667; assay type: cell-based; conditions: Enterococcus faecium, ATCC35667, read-out: MIC
Method: as §1, §2, §3, §4, §5, §6

E. faecalis ATCC 29212 = experiment: MIC by agar dilution, E. faecalis ATCC 29212; assay type: cell-based; conditions: Enterococcus faecalis, ATCC29212, read-out: MIC
Method: as §1, §2, §3, §4, §5, §6

P. aeruginosa ATCC 27853 = experiment: MIC by agar dilution, P. aeruginosa ATCC 27853; assay type: cell-based; conditions: Pseudomonas aeruginosa, ATCC27853, read-out: MIC
Method: as §1, §2, §3, §4, §5, §6

[4] = test system: methicillin-susceptible S. aureus strain ATCC 13709; experiment: murine model for lethal bacteremic peritonitis; assay type: in vivo, female Swiss-Webster mice; conditions: 72 h, subcutaneous
Method: Groups of 5 female Swiss-Webster mice (Simonsen, Gilroy, Calif.) each are challenged by the intraperitoneal (IP) route with tenfold increments of a bacterial inoculum. This permits calculation of the mean lethal dose (LD50) and the LD100. For preliminary evaluation of a new antibiotic, mice are challenged IP with an LD100 titer of bacteria. In two equal doses administered at the time of bacterial challenge and 2 hours later, groups of 10 mice each are treated subcutaneously with two-fold increments of the test drug and an antibiotic of known efficacy in mice and humans (i.e., positive control). Mice are observed for 72 h. Those alive at 72 h are considered long term survivors. The total drug dose in mg/kg that protects 50% of mice in a group from death is termed the mean protective dose (PD50). PD50 s are similarly determined for several pathogens. The quantitative endpoints for the new drug are then compared with those obtained with reference antibiotics.
Six ten-fold dilutions of inoculum suspended in 0.5 mL of sterilized 7% hog gastric mucin (Sigma) are injected IP in groups of 5 mice each. A control group of 5 mice receive mucin alone. Mice are observed for 72 h. Those alive at 72 h are considered long term survivors. The mean lethal dose (LD50) and 100% lethal dose (LD100) are determined by the probit test.
For antibiotic efficacy studies, mice are challenged IP with bacterial titers that will afford an LD100 for the test strain. In two equal doses administered at the time of bacterial challenge and 2 hours later, groups of 10 mice each are treated by the subcutaneous route (SC) with twofold increments of the test antibiotic; another group is treated similarly with a reference antibiotic of known efficacy in animals and man. Drug doses can range from 0.01 to 512 mg/kg. If the drug is poorly soluble, Tween 20 or propylene glycol will be employed to solubilize the drug. Animals are observed for 72 h. The 50% protective dose (PD50) is calculated in mg/kg by the probit method. The PD50 is the same as the 50% effective dose (ED50) and the 50% curative dose (CD50). Samples of blood from the hearts of all animals that die and from half the mice that survive are cultured on brain-heart infusion agar. Animals that received a protective dosage of the test drug will be alive at 72 h, although they may appear moderately ill to very ill during the observation period. […] Most of these mice will die within 6 to 48 h. Those alive at 72 h will be considered long term survivors.
(Compound numbers correspond to those in MIC tables; data
reported for challenge with methicillin-susceptible S. aureus

What does the source list for N=C(N)SCCSCC(=O)N[C@@H]1C(=O)N2C(C(=O)O)=C(Sc3ccc(CSC(=N)N)cc3CSC(=N)N)CS[C@H]12 [Cmpd 142, (7R)-7-[((2-(isothiouronium)ethylthio)acetyl)amino]-3-[2,4-(bis)isothiouroniummethylphenylthio]-3-cephem-4-carboxylate, trifluoroacetic acid salt]?
MIC (S. aureus ATCC 29213): 0.25 µg/mL; MIC [1]: 4 µg/mL; MIC [2]: 8 µg/mL; MIC [3]: 0.25 µg/mL; MIC (S. haemolyticus (Meth^R)): 8 µg/mL; MIC (E. faecium ATCC 35667): 0.5 µg/mL; MIC (E. faecalis ATCC 29212): 1 µg/mL; MIC (P. aeruginosa ATCC 27853): > 32 µg/mL; ED50 ([4]; Staphylococcus aureus, ATCC13709, sc, two equal doses, S. aureus ATCC 13709 IP challenge, read-out: ED50): < 0.156 mg/kg; Mortality ([4]; dose 0.1562 mg/kg): 3/10; Mortality ([4]; dose 0.3125 mg/kg): 1/10; Mortality ([4]; dose 0.625 mg/kg): 0/10; Mortality ([4]; dose 1.25 mg/kg): 0/10; Mortality ([4]; dose 2.5 mg/kg): 0/10

How did the MIC (S. aureus ATCC 29213) turn out when O=C(CS/C=C\Cl)N[C@@H]1C(=O)N2C(C(=O)O)=C(Sc3ccnn3-c3ccccc3)CS[C@H]12 [Cmpd 131, (7R)-7-[((Z-2-Chlorovinyl)thioacetyl)amino]-3-(1-N-phenylpyrazol-5-ylthio)-3-cephem-4-carboxylic acid] was run?
Its MIC is < 0.06 µg/mL.

What about the MIC [1] of the same compound?
Its MIC is 1 µg/mL (≈ 1.96 µM).

And the Mortality ([4]; dose 0.625 mg/kg)?
Its Mortality is 9/10.

And the Mortality ([4]; dose 1.25 mg/kg)?
The Mortality was 7/10.

What about the Mortality ([4]; dose 2.5 mg/kg) of the same compound?
The Mortality was 4/10.

And the Mortality ([4]; dose 5 mg/kg)?
The Mortality was 0/10.

And the Mortality ([4]; dose 10 mg/kg)?
The Mortality was 0/10.

How did the MIC (S. aureus ATCC 29213) turn out when O=C(COc1ccccc1)N[C@@H]1C(=O)N2C(C(=O)O)=C(Sc3ccnn3-c3ccccc3)CS[C@H]12 [Cmpd 112, (7R)-7-[(phenyloxyacetyl)amino]-3-(1-N-phenylpyrazol-5-ylthio)-3-cephem-4-carboxylic acid] was run?
The MIC was ≤ 0.06 µg/mL.

What about the MIC [1] of the same compound?
Its MIC is 4 µg/mL (≈ 7.87 µM).

And the MIC [3]?
The MIC was ≤ 0.06 µg/mL.

Which MIC [1] does the source give for Nc1nc(/C(=N/OCC2CC2)C(=O)N[C@@H]2C(=O)N3C(C(=O)O)=C(Sc4ccnn4-c4ccccc4)CS[C@H]23)cs1 [Cmpd 108, (7R)-7-[(Z)-2-(2-aminothiazol-4-yl)-2-(cyclopropylmethyloxyimino)acetamido]-3-(1-N-phenylpyrazol-5-ylthio)-3-cephem-4-carboxylic acid] here?
The MIC was 4 µg/mL (≈ 6.69 µM).

What about the Mortality ([4]; dose 0.625 mg/kg) of the same compound?
Its Mortality is 9/10.

And the Mortality ([4]; dose 1.25 mg/kg)?
The Mortality was 8/10.

What about the Mortality ([4]; dose 2.5 mg/kg) of the same compound?
Its Mortality is 9/10.

And the Mortality ([4]; dose 5 mg/kg)?
Its Mortality is 10/10.

What about the Mortality ([4]; dose 10 mg/kg) of the same compound?
Its Mortality is 10/10.

Which results are given for O=C(Cc1ccccc1)N[C@@H]1C(=O)N2C(C(=O)O)=C(Sc3cccnc3-c3ccccc3)CS[C@H]12 [Cmpd 81, (7R)-7-[(Phenylacetyl)amino]-3-(2-phenylpyridin-3-ylthio)-3-cephem-4-carboxylic acid]?
MIC [1]: 2 µg/mL (≈ 3.97 µM); Mortality ([4]; dose 2 mg/kg): 8/10; Mortality ([4]; dose 4 mg/kg): 10/10; Mortality ([4]; dose 8 mg/kg): 5/10; Mortality ([4]; dose 16 mg/kg): 2/10

How did the MIC [1] turn out when N#Cc1ccccc1SC1=C(C(=O)O)N2C(=O)[C@@H](NC(=O)Cc3ccccc3)[C@H]2SC1 [Cmpd 41, (7R)-7-[(Phenylacetyl)amino]-3-(2-cyanophenylthio)-3-cephem-4-carboxylic acid] was run?
The MIC was 1 µg/mL (≈ 2.21 µM).

And the Mortality ([4]; dose 0.625 mg/kg)?
The Mortality was 8/10.

And the Mortality ([4]; dose 1.25 mg/kg)?
Its Mortality is 6/10.

And the Mortality ([4]; dose 2.5 mg/kg)?
Its Mortality is 0/10.

What about the Mortality ([4]; dose 5 mg/kg) of the same compound?
Its Mortality is 0/10.

What about the Mortality ([4]; dose 10 mg/kg) of the same compound?
The Mortality was 0/10.

Which results are given for N#CCC(=O)N[C@@H]1C(=O)N2C(C(=O)O)=C(Sc3ccnn3-c3ccccc3)CS[C@H]12 [Cmpd 88, (7R)-7-[(Cyanoacetyl)amino]-3-(1-N-phenylpyrazol-5-ylthio)-3-cephem-4-carboxylic acid]?
MIC [1]: 4 µg/mL (≈ 9.06 µM); Mortality ([4]; dose 0.625 mg/kg): 2/10; Mortality ([4]; dose 1.25 mg/kg): 1/10; Mortality ([4]; dose 2.5 mg/kg): 0/10; Mortality ([4]; dose 5 mg/kg): 0/10; Mortality ([4]; dose 10 mg/kg): 0/10

What does the source list for O=C(Cc1ccccc1)N[C@@H]1C(=O)N2C(C(=O)O)=C(Sc3ccnn3-c3ccccc3)CS[C@H]12 [Cmpd 87, (7R)-7-[(Phenylacetyl)amino]-3-(1-N-phenylpyrazol-5-ylthio)-3-cephem-4-carboxylic acid]?
MIC [1]: 1 µg/mL (≈ 2.03 µM); Mortality ([4]; dose 2 mg/kg): 4/10; Mortality ([4]; dose 4 mg/kg): 3/10; Mortality ([4]; dose 8 mg/kg): 0/10; Mortality ([4]; dose 16 mg/kg): 0/10

What does the source list for O=C(O)C1=C(Sc2ccnn2-c2ccccc2)CS[C@@H]2[C@H](NC(=O)C3SCCS3)C(=O)N12 [Cmpd 115, (7R)-7-[(2-dithiolanylcarbonyl)amino]-3-(1-N-phenylpyrazol-5-ylthio)-3-cephem-4-carboxylic acid]?
MIC [1]: 4 µg/mL (≈ 7.89 µM); Mortality ([4]; dose 0.625 mg/kg): 8/10; Mortality ([4]; dose 1.25 mg/kg): 9/10; Mortality ([4]; dose 2.5 mg/kg): 7/10; Mortality ([4]; dose 5 mg/kg): 4/10; Mortality ([4]; dose 10 mg/kg): 0/10
